The MIC is the least concentration at which growth counts as inhibited. The low end stands for inhibition by little substance, the high end for a need for much substance.

Drawing on ChEMBL document CHEMBL4325868, “Design, synthesis and antitubercular activity of 4-alkoxy-triazoloquinolones able to inhibit the M. tuberculosis DNA gyrase” (Eur J Med Chem, 2019), this text covers MIC for 2 molecules.

Values after ≈ are worked out from the molar mass of the structure shown.

Common to all, as to type: functional
The subject of assay [1] is Mycobacterium tuberculosis. The assay can be described thus: Antitubercular activity against isoniazid resistant Mycobacterium tuberculosis isolate 1358 after 7 days by resazurin microtiter assay. The following applies: isolate 1358, 168 h.
The subject of assay [2] is Mycobacterium tuberculosis. The assay can be described thus: Antitubercular activity against ciprofloxacin resistant Mycobacterium tuberculosis isolate 1670 after 7 days by resazurin microtiter assay. The following applies: isolate 1670, 168 h. On the technique in general: Alamar Blue is a resazurin reagent that responds to reducing activity.
Assay [3] relates to Mycobacterium tuberculosis. As to the kind of experiment: Antitubercular activity against multidrug resistant Mycobacterium tuberculosis isolate 512 after 7 days by resazurin microtiter assay. The following applies: isolate 512, 168 h.
Assay [4] relates to Mycobacterium tuberculosis. As to the kind of experiment: Antitubercular activity against multidrug resistant Mycobacterium tuberculosis isolate 7 after 7 days by resazurin microtiter assay. Conditions: isolate 7, 168 h.
Assay [5] concerns Mycobacterium tuberculosis. As to the kind of experiment: Antitubercular activity against rifampicin/ethambutol resistant Mycobacterium tuberculosis isolate 1726 after 7 days by resazurin microtiter assay. The following applies: isolate 1726, 168 h.
Assay [6] concerns Mycobacterium tuberculosis. The assay can be described thus: Antitubercular activity against streptomycin resistant Mycobacterium tuberculosis isolate 203 after 7 days by resazurin microtiter assay. The following applies: isolate 203, 168 h.
The test system of assay [7] is Mycobacterium tuberculosis. The assay can be described thus: Antitubercular activity against streptomycin resistant Mycobacterium tuberculosis isolate 204 after 7 days by resazurin microtiter assay. The following applies: isolate 204, 168 h.
Assay [8] has as its system Mycobacterium tuberculosis. As to the kind of experiment: Antitubercular activity against streptomycin resistant Mycobacterium tuberculosis isolate 157 after 7 days by resazurin microtiter assay. The following applies: isolate 157, 168 h.
The subject of assay [9] is Mycobacterium tuberculosis. The assay can be described thus: Antitubercular activity against isoniazid/ethambutol resistant Mycobacterium tuberculosis isolate 368 after 7 days by resazurin microtiter assay. The following applies: isolate 368, 168 h.
Assay [10] relates to Mycobacterium tuberculosis. As to the kind of experiment: Antitubercular activity against multidrug resistant Mycobacterium tuberculosis isolate 571 after 7 days by resazurin microtiter assay. Conditions: isolate 571, 168 h.
Assay [11] relates to Mycobacterium tuberculosis. As to the kind of experiment: Antitubercular activity against multidrug resistant Mycobacterium tuberculosis isolate 1120 after 7 days by resazurin microtiter assay. The following applies: isolate 1120, 168 h.
Assay [12] has as its system Mycobacterium tuberculosis. The assay can be described thus: Antitubercular activity against ciprofloxacin resistant Mycobacterium tuberculosis isolate 600 after 7 days by resazurin microtiter assay. Conditions: isolate 600, 168 h.
For assay [13], the system named is Mycobacterium tuberculosis. The assay can be described thus: Antitubercular activity against rifampicin resistant Mycobacterium tuberculosis isolate 952 after 7 days by resazurin microtiter assay. Conditions: isolate 952, 168 h.
The subject of assay [14] is Mycobacterium tuberculosis. The assay can be described thus: Antitubercular activity against streptomycin/isoniazid/ethambutol resistant Mycobacterium tuberculosis isolate 1097 after 7 days by resazurin microtiter assay. The following applies: isolate 1097, 168 h.

Regarding `COc1cc2c(=O)c(C(=O)O)cn(C)c2c2nnn(C)c12`, the MIC stood at 16 µM (≈ 4.61 µg/mL) in assay [1]; 16 µM (≈ 4.61 µg/mL) in assay [2]; 8 µM (≈ 2.31 µg/mL) in assay [3]; 4 µM (≈ 1.15 µg/mL) in assay [4]; 16 µM (≈ 4.61 µg/mL) in assay [5]; 16 µM (≈ 4.61 µg/mL) in assay [6]. The MIC worked out at 8 µM (≈ 2.31 µg/mL) in assay [7]; 8 µM (≈ 2.31 µg/mL) in [8]; 8 µM (≈ 2.31 µg/mL) in assay [9]; 16 µM (≈ 4.61 µg/mL) in assay [10]; 4 µM (≈ 1.15 µg/mL) in assay [11]; 16 µM (≈ 4.61 µg/mL) in assay [12]. Also, the MIC in assay [13] and in [14] was 32 µM (≈ 9.22 µg/mL) in each case.
Take `O=C(O)c1cn(C2CC2)c2cc(N3CCNCC3)c(F)cc2c1=O` [CIPROFLOXACIN]: the values for the MIC in assay [2], in assay [3] and in assay [12] were 16 µM (≈ 5.3 µg/mL), 8 µM (≈ 2.65 µg/mL) and 4 µM (≈ 1.33 µg/mL), respectively.
